Here are results for six compounds from ChEMBL document CHEMBL2074080, “Enhanced drug-induced apoptosis associated with P-glycoprotein overexpression is specific to antimicrotubule agents” (Pharm Res, 2003).

The data set addresses ATP-dependent translocase ABCB1 (Homo sapiens, UniProt P08183). The experiment in a line: TP_TRANSPORTER: drug resistance in MDR1-expressing MCF7 cells. Type of data set: functional, cell-based.

ATP-dependent translocase ABCB1, sequence (P08183 whole entry): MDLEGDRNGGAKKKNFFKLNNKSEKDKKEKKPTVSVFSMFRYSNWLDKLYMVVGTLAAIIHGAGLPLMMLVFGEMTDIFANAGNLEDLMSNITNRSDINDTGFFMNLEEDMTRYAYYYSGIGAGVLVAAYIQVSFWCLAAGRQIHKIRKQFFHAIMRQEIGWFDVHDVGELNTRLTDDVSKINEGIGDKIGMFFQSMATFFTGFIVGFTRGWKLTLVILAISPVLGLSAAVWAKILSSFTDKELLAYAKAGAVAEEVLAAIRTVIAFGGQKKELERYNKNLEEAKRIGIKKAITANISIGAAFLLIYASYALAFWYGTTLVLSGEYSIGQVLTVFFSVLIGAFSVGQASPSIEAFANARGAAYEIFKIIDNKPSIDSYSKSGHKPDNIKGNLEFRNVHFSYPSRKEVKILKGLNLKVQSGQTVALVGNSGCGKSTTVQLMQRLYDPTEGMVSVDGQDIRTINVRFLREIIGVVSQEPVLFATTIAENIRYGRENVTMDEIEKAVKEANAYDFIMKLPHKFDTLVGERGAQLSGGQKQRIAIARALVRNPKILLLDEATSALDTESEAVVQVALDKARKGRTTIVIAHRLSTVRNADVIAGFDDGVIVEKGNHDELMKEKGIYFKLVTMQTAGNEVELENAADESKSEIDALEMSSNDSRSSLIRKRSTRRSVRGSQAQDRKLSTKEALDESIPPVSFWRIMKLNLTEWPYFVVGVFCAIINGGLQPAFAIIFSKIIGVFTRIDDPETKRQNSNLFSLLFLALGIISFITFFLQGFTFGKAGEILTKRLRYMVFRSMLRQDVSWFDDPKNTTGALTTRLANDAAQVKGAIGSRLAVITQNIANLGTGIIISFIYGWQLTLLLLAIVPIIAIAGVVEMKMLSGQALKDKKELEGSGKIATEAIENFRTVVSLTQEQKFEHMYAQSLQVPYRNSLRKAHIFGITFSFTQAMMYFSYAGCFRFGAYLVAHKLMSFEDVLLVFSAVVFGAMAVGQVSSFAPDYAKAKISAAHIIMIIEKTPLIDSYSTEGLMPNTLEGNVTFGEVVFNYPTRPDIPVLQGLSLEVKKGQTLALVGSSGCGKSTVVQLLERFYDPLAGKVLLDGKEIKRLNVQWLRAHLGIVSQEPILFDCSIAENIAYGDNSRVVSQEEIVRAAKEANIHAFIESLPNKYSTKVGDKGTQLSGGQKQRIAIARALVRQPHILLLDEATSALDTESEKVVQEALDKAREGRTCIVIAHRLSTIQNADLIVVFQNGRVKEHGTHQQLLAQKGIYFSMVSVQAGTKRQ

As to `O=c1[nH]c(=O)n([C@@H]2O[C@H](CO)[C@@H](O)[C@H]2O)cc1F` [5-FLUOROURIDINE], the Activity result was “is not a substrate [-]”.

On to `CC[C@@]1(O)C(=O)OCc2c1cc1n(c2=O)Cc2cc3ccccc3nc2-1` [CAMPTOTHECIN], for which the Activity entry was “is not a substrate [-]”.

In the case of `COc1cccc2c1C(=O)c1c(O)c3c(c(O)c1C2=O)C[C@@](O)(C(=O)CO)C[C@@H]3O[C@H]1C[C@H](N)[C@H](O)[C@H](C)O1` [DOXORUBICIN], the Activity entry was “substrate [+]”.

For `CC(=O)O[C@H]1C(=O)[C@@]2(C)[C@H]([C@H](OC(=O)c3ccccc3)[C@]3(O)C[C@H](OC(=O)[C@H](O)[C@@H](NC(=O)c4ccccc4)c4ccccc4)C(C)=C1C3(C)C)[C@]1(OC(C)=O)CO[C@@H]1C[C@@H]2O` [PACLITAXEL], the Activity result was “substrate [+]”.

For the compound `CC[C@]1(O)C[C@H]2CN(CCc3c([nH]c4ccccc34)[C@@](C(=O)OC)(c3cc4c(cc3OC)N(C=O)[C@H]3[C@@](O)(C(=O)OC)[C@H](OC(C)=O)[C@]5(CC)C=CCN6CC[C@]43[C@@H]65)C2)C1` [VINCRISTINE], the Activity result is “substrate [+]”.

Take CISPLATIN: the Activity entry was “is not a substrate [-]”.
